In patent US20070098649A1, “Method and composition for controlling oral pathogens” (priority 2004, published 2007):
Structures can show the parent of a compound that is named as a salt. Where two headings read alike, the source gives them in different places. Marks after values point to notes of the source that are not given here.

How the values were obtained:
[1] = test system: patients with heart conditions; settings: human, in vivo; cited from earlier work
Streptococcus gordonii [2] = assay: MIC microdilution assay; format: cell-based; settings: Streptococcus gordonii, S. gordonii
Staphylococcus aureus [3] = assay: MIC microdilution assay; format: cell-based; settings: S. aureus, agent alone, read-out: MIC of the antimicrobial agents alone
Escherichia coli [4] = assay: MIC microdilution assay; format: cell-based; settings: E. coli, agent alone, read-out: MIC of the antimicrobial agents alone
[5] = rat, in vivo, iv; cited from earlier work
rabbits = settings: s.c.; cited from earlier work
[6] = in vivo, po; cited from earlier work
mice [7] = settings: cited from earlier work; for LD50: mice
Streptococcus mutans [8] = assay: MIC microdilution assay; format: cell-based; settings: Streptococcus mutans, S. mutans
Porphymonas gingivalis [9] = assay: MIC microdilution assay; format: cell-based; settings: Porphyromonas gingivalis, P. gingivalis
Fusobacterium nucleatum [10] = assay: MIC microdilution assay; format: cell-based; settings: Fusobacterium nucleatum, F. nucleatum
[11] = test system: Actinobacillus actinomycetemcomitans; assay: MIC microdilution assay; format: cell-based; settings: Aggregatibacter actinomycetemcomitans
Pseudomonas aeruginosa [12] = assay: MIC microdilution assay; format: cell-based; settings: Pseudomonas aeruginosa; P. aeruginosa; agent alone; read-out: MIC of the antimicrobial agents alone
Streptococcus mutans [13] = assay: Combination determination (FIC, MIC in combination); format: cell-based; settings: S. mutans
Method: (§1) The alkaloids were tested in pair-wise combinations (fractional inhibitory concentrations, FIC) against all the bacteria to determine whether interactions were antagonistic (FIC>1), additive (0.5<FIC<1), or synergistic (FIC<0.5). The FIC was calculated by the following: (MIC Acombination/MIC Aalone)+(MIC Bcombination/MIC Balone). Where A represents compound 1 and B represents compound 2. […] In the case of A. actinomycetemcomitans and P. aeruginosa, CHX was used at 0.78 to 50 μg ml^−1. Berberine (B-CG and B-S) was used at concentrations 0.9 to 250 μg ml^−1. The antibacterial efficacy of berberine (1.95 to 500 μg ml^−1) was tested in combination against P. aeruginosa with CHX (0.78 to 50 μg ml^−1) (Sigma Chemicals) and the polymyxin antibiotic Col (0.04 to 25 μg ml^−1) (Sigma Chemicals). The plates were incubated for 24 hours.
CHX was diluted from left to right at 10 to 0.08 μg ml^−1 ([…] 1 to 8), berberine was diluted from top to bottom at 250 to 0.09 μg ml^−1 ([…] 1 to 8). Column 9 was the cell control, column 10 was berberine alone (250 to 0.09 μg ml^−1); and column 11 was CHX alone (10 to 0.08 μg ml^−1). Row H was the solvent control (8% DMSO, H1 to H8). Column 12 was the media blank. The dilution assay was designed such that A1 contained the highest concentration of both agents (berberine 250 μg ml^−1 and CHX 10 μg ml^−1). The final concentration of berberine in wells A2 to A8 was […]. The FIC value was calculated from well C6. FIC was calculated by: (MIC Acombination/MIC Aalone)+(MIC Bcombination/MIC Balone).

Fusobacterium nucleatum [14] = assay: as above; format: cell-based; settings: F. nucleatum; berberine (B-CG) combined with CHX, Tet or Dox; MIC of the named agent in the combination
Method: as §1

Pseudomonas aeruginosa [15] = assay: as above; format: cell-based; settings: P. aeruginosa; berberine combined with CHX or Col; MIC of the named agent in the combination
Method: as §1

Staphylococcus aureus [16] = assay: as above; format: cell-based; settings: S. aureus; berberine (B-CG) combined with CHX, Tet or Dox; MIC of the named agent in the combination
Method: as §1

Escherichia coli [17] = assay: as above; format: cell-based; settings: E. coli; berberine (B-CG) combined with CHX, Tet or Dox; MIC of the named agent in the combination
Method: as §1

Streptococcus gordonii [18] = assay: as above; format: cell-based; settings: S. gordonii; berberine (B-CG) combined with CHX, Tet or Dox; MIC of the named agent in the combination
Method: as §1

Porphymonas gingivalis [19] = assay: as above; format: cell-based; settings: P. gingivalis; berberine (B-CG) combined with CHX, Tet or Dox; MIC of the named agent in the combination
Method: as §1

[20] = test system: Actinobacillus actinomycetemcomitans; assay: as above; format: cell-based; settings: A. actinomycetemcomitans grown under anaerobic conditions; berberine (B-CG) combined with CHX, Tet or Dox; MIC of the named agent in the combination
Method: as §1

rats [21] = settings: single intraintestinal injection 10 mg/kg into the duodenum; cited from earlier work
rats [22] = settings: intravenous 0.1-6.0 mg/kg; cited from earlier work
cats = settings: intravenous 0.1-6.0 mg/kg; cited from earlier work
albino rats = settings: i.p. 50 mg/kg; cited from earlier work
dogs [23] = settings: dog, in vivo; cited from earlier work
mice [24] = settings: 15 mg/kg i.p.; cited from earlier work
dogs [25] = settings: intravenous 0.1-6.0 mg/kg; cited from earlier work
S. pyogenes = settings: at sub-MIC levels; cited from earlier work
[26] = agent alone, read-out: MIC of the antimicrobial agents alone

COc1ccc2cc3[n+](cc2c1OC)CCc1cc2c(cc1-3)OCO2 [Berberine, 5,6-dihydro-9,10-dimethoxybenzo[g]-1,3-benzodioxolo[5,6-a]quinolizinium]
Adverse effect in heart failure patients [1]: ventricular tachycardia in some subjects
MIC (Streptococcus gordonii [2]; [26]): 250 µg/mL
MIC (Streptococcus gordonii [2]; Sg, read-out: MIC of Goldenseal Alkaloids Against Selected Oral Pathogens): 250 µg/mL
MIC (Staphylococcus aureus [3]): 250 µg/mL
MIC (Escherichia coli [4]): 250 µg/mL
Tissue distribution [5]: highest concentrations of berberine were found in the kidneys
LD50 (rabbits): 100 mg/kg
Further time to clear [6]: four
Time to reach peak concentrations in plasma [6]: four
LD50 (mice [7]; oral): 329 mg/kg
LD50 (mice [7]; s.c.): 18 mg/kg
LD dose (mice [7]; mouse, in vivo, ip): greater than 500 mg/kg
MIC (Streptococcus mutans [8]; [26]): 125 µg/mL
MIC (Streptococcus mutans [8]; Sm, read-out: MIC of Goldenseal Alkaloids Against Selected Oral Pathogens): 125 µg/mL
MIC (Porphymonas gingivalis [9]; [26]): 23.4 µg/mL
MIC (Porphymonas gingivalis [9]; Pg, read-out: MIC of Goldenseal Alkaloids Against Selected Oral Pathogens): 15.6 µg/mL
MIC (Fusobacterium nucleatum [10]; [26]): 15.6 µg/mL
MIC (Fusobacterium nucleatum [10]; Fn, read-out: MIC of Goldenseal Alkaloids Against Selected Oral Pathogens): 15.6 µg/mL
MIC ([11]; A. actinomycetemcomitans grown under anaerobic conditions, agent alone, read-out: MIC of the antimicrobial agents alone): > 500 µg/mL
MIC ([11]; Aa, A. actinomycetemcomitans, read-out: MIC of Goldenseal Alkaloids Against Selected Oral Pathogens): > 500 µg/mL
MIC (Pseudomonas aeruginosa [12]): > 500 µg/mL
MIC of the antimicrobial agents in combination (Streptococcus mutans [13]; berberine (B-CG) combined with CHX, Tet or Dox, MIC of the named agent in the combination): 62.5 µg/mL
MIC alone used for the FIC (Streptococcus mutans [13]; same plate, 48 h): 125 µg/mL
MIC in combination used for the FIC (Streptococcus mutans [13]; well C6, berberine (B-G) with CHX, 48 h): 31.25 µg/mL
MIC of the antimicrobial agents in combination (Fusobacterium nucleatum [14]): 3.9 µg/mL
MIC of the antimicrobial agents in combination (Pseudomonas aeruginosa [15]): 250** μg ml^−1
MIC of the antimicrobial agents in combination (Staphylococcus aureus [16]): 62.5 µg/mL
MIC of the antimicrobial agents in combination (Escherichia coli [17]): 125 µg/mL
MIC of the antimicrobial agents in combination (Streptococcus gordonii [18]): 62.5 µg/mL
MIC of the antimicrobial agents in combination (Porphymonas gingivalis [19]): 7.81 µg/mL
MIC of the antimicrobial agents in combination [20]: 250 µg/mL

COc1ccc2cc3[n+](cc2c1OC)CCc1cc2c(cc1-3)OCO2 [berberine sulfate]
Effect on the volume or acidity (rats [21]): no effect
Effect on blood pressure (rats [22]): reduced the blood pressure
Effect on blood pressure (cats): reduced the blood pressure
Effect on rectal temperature (albino rats): reduced rectal temperature
Number of apomorphine-induced vomits (dogs [23]): significantly increased
Protection from amphetamine toxicity (mice [24]): no significant effect
Effect on blood pressure (dogs [25]): reduced the blood pressure
Adherence of S. pyogenes to epithelial cells (S. pyogenes): inhibited the adherence
